# Data taken from patent US10781224B2, “Bis(oxymethyl)phosphinic acid and biogenic metal salts thereof as regulators of plant growth and development” (priority 2016, dated 2020).
# Assays:
# [1] = system: winter wheat (Vershin variety); assay: Winter wheat seed treatment with BHMPA salts: germination energy and germination rate; assay type: in vivo
# Description: Control—Soaking Seeds in Water;
# (§1) Experimental versions—soaking seeds in BHMPA solutions and solutions of BHMPA Ca, Mg, Na, Co, Mn, Cu, and Zn salts at 1·10^−6-1·10^−12% concentrations (doses). The studies were conducted in laboratory in Petri dishes; seed bed—two layers of filter paper. 50 seeds soaked in water (control) and in the solutions of the tested compounds (experimental) were placed into each dish. Wheat, corn, and rice seeds were exposed for one hour.
# Analysis was conducted according to the government standards GOST 12038-84 “Crop seeds. Technical conditions for determining the germination energy and germination rate”, GOST 12044-93 “Crop seeds. Methods for determining disease contamination.”
# (§2) Seed germination energy and rate were calculated in percent as an arithmetic mean of the four experimental results (germination energy on the 4th day, wheat germination on the 8th day, rice and corn germination—on the 7th day). Germination was determined based on the germinating power indicators (length of the roots and sprouts and their wet and dry mass per 100 shoots).
# (§3) The effect of pre-sowing seed treatment with the claimed BHMPA salts of biogenic metals was studied on winter wheat (Vershin variety), corn (Krasnodar 385 MV variety), and rice (Diamant variety).
# [2] = system: rice (Diamant variety); assay: Rice seed treatment with BHMPA salts: germinating power; assay type: in vivo
# Description: as §1, §2, §3
# The above data describe the seed viability only at the initial stage of germination, while the germination ability at the later stage of germination is defined by the initial germinating power. The method for the determination of the germinating power comprises measuring the height of the sprouts and primary roots, as well as the biomass and the dry mass thereof per 100 seedlings. [M. A. Kartuzova. Initial Germinating Power as Method of Biological Assessment of Seed Quality. Selection and Seed Farming, #2, 1953].
# [3] = winter wheat Vershin, 1·10^−6% solution
# [4] = winter wheat Vershin, 1·10^−7% solution
# [5] = winter wheat Vershin, 1·10^−8% solution
# [6] = winter wheat Vershin, 1·10^−9% solution
# [7] = winter wheat Vershin, 1·10^−10% solution
# [8] = winter wheat Vershin, 1·10^−11% solution
# [9] = winter wheat Vershin, 1·10^−12% solution
# [10] = winter wheat, comparative study vs Melaphen, 1·10^−10% solution
# [11] = rice seed treatment, comparison with Melaphen (Table XXXIII), solution 1 · 10^−9%
# [12] = rice seeds, solution concentration 1 · 10^−6%
# [13] = rice seeds, solution concentration 1 · 10^−7%
# [14] = rice seeds, solution concentration 1 · 10^−8%
# [15] = rice seeds, solution concentration 1 · 10^−9%
# [16] = rice seeds, solution concentration 1 · 10^−10%
# [17] = rice seeds, solution concentration 1 · 10^−11%
# [18] = rice seeds, solution concentration 1 · 10^−12%
# [19] = rice, vs control, 1·10^−9% solution
compound,measurement,setting,value
"O.O.O=P([O-])(CO)CO.O=P([O-])(CO)CO.[Co+2] [Co-salt, Cobalt BHMPA Salt]",Germination energy,[1]; [3],89.2%
same,Germination rate,[1]; [3],93.0%
same,Germination energy,[1]; [4],91.4%
same,Germination rate,[1]; [4],94.0%
same,Germination energy,[1]; [5],92.8%
same,Germination rate,[1]; [5],96.0%
same,Germination energy,[1]; [6],94.3%
same,Germination rate,[1]; [6],97.3%
same,Germination energy,[1]; [7],95.6%
same,Germination rate,[1]; [7],98.7%
same,Germination energy,[1]; [8],94.7%
same,Germination rate,[1]; [8],97.3%
same,Germination energy,[1]; [9],92.0%
same,Germination rate,[1]; [9],94.7%
same,Germination energy,[1]; [10],93.7%
same,Germination rate,[1]; [10],97.3%
same,optimum concentration for treating rice seeds before sowing,[2]; rice,1·10^−9%
same,"Length, root",[2]; [11],6.4 cm
same,"Length, root, + % to control",[2]; [11],33%
same,"Length, sprout",[2]; [11],3.7 cm
same,"Length, sprout, + % to control",[2]; [11],42%
same,"Mass, dry, root",[2]; [11],0.25 g/100 plantlings
same,"Mass, dry, root, + % to control",[2]; [11],19%
same,"Mass, dry, sprout",[2]; [11],0.28 g/100 plantlings
same,"Mass, dry, sprout, + % to control",[2]; [11],12%
same,"Mass, wet, root",[2]; [11],1.37 g/100 plantlings
same,"Mass, wet, root, + % to control",[2]; [11],40%
same,"Mass, wet, sprout",[2]; [11],2.28 g/100 plantlings
same,"Mass, wet, sprout, + % to control",[2]; [11],51%
same,"Length, root",[2]; [12],5.1 cm
same,"Length, root, + % to control",[2]; [12],8.5%
same,"Length, sprout",[2]; [12],2.6 cm
same,"Length, sprout, + % to control",[2]; [12],13%
same,"Mass, dry, root",[2]; [12],0.19 g/100 plantlings
same,"Mass, dry, root, + % to control",[2]; [12],12%
same,"Mass, dry, sprout",[2]; [12],0.25 g/100 plantlings
same,"Mass, dry, sprout, + % to control",[2]; [12],25%
same,"Mass, wet, root",[2]; [12],0.89 g/100 plantlings
same,"Mass, wet, root, + % to control",[2]; [12],8.5%
same,"Mass, wet, sprout",[2]; [12],1.71 g/100 plantlings
same,"Mass, wet, sprout, + % to control",[2]; [12],15.5%
same,"Length, root",[2]; [13],5.4 cm
same,"Length, root, + % to control",[2]; [13],15%
same,"Length, sprout",[2]; [13],2.9 cm
same,"Length, sprout, + % to control",[2]; [13],26%
same,"Mass, dry, root",[2]; [13],0.22 g/100 plantlings
same,"Mass, dry, root, + % to control",[2]; [13],29%
same,"Mass, dry, sprout",[2]; [13],0.28 g/100 plantlings
same,"Mass, dry, sprout, + % to control",[2]; [13],40%
same,"Mass, wet, root",[2]; [13],0.94 g/100 plantlings
same,"Mass, wet, root, + % to control",[2]; [13],15%
same,"Mass, wet, sprout",[2]; [13],1.80 g/100 plantlings
same,"Mass, wet, sprout, + % to control",[2]; [13],22%
same,"Length, root",[2]; [14],5.7 cm
same,"Length, root, + % to control",[2]; [14],21%
same,"Length, sprout",[2]; [14],3.1 cm
same,"Length, sprout, + % to control",[2]; [14],35%
same,"Mass, dry, root",[2]; [14],0.24 g/100 plantlings
same,"Mass, dry, root, + % to control",[2]; [14],41%
same,"Mass, dry, sprout",[2]; [14],0.31 g/100 plantlings
same,"Mass, dry, sprout, + % to control",[2]; [14],55%
same,"Mass, wet, root",[2]; [14],1.07 g/100 plantlings
same,"Mass, wet, root, + % to control",[2]; [14],30%
same,"Mass, wet, sprout",[2]; [14],2.01 g/100 plantlings
same,"Mass, wet, sprout, + % to control",[2]; [14],36%
same,"Length, root",[2]; [15],6.2 cm
same,"Length, root, + % to control",[2]; [15],32%
same,"Length, sprout",[2]; [15],3.5 cm
same,"Length, sprout, + % to control",[2]; [15],52%
same,"Mass, dry, root",[2]; [15],0.26 g/100 plantlings
same,"Mass, dry, root, + % to control",[2]; [15],53%
same,"Mass, dry, sprout",[2]; [15],0.35 g/100 plantlings
same,"Mass, dry, sprout, + % to control",[2]; [15],75%
same,"Mass, wet, root",[2]; [15],1.15 g/100 plantlings
same,"Mass, wet, root, + % to control",[2]; [15],40%
same,"Mass, wet, sprout",[2]; [15],2.09 g/100 plantlings
same,"Mass, wet, sprout, + % to control",[2]; [15],41%
same,"Length, root",[2]; [16],5.8 cm
same,"Length, root, + % to control",[2]; [16],23%
same,"Length, sprout",[2]; [16],3.2 cm
same,"Length, sprout, + % to control",[2]; [16],39%
same,"Mass, dry, root",[2]; [16],0.23 g/100 plantlings
same,"Mass, dry, root, + % to control",[2]; [16],35%
same,"Mass, dry, sprout",[2]; [16],0.28 g/100 plantlings
same,"Mass, dry, sprout, + % to control",[2]; [16],40%
same,"Mass, wet, root",[2]; [16],1.03 g/100 plantlings
same,"Mass, wet, root, + % to control",[2]; [16],26%
same,"Mass, wet, sprout",[2]; [16],1.97 g/100 plantlings
same,"Mass, wet, sprout, + % to control",[2]; [16],33%
same,"Length, root",[2]; [17],5.6 cm
same,"Length, root, + % to control",[2]; [17],19%
same,"Length, sprout",[2]; [17],2.8 cm
same,"Length, sprout, + % to control",[2]; [17],22%
same,"Mass, dry, root",[2]; [17],0.20 g/100 plantlings
same,"Mass, dry, root, + % to control",[2]; [17],18%
same,"Mass, dry, sprout",[2]; [17],0.26 g/100 plantlings
same,"Mass, dry, sprout, + % to control",[2]; [17],30%
same,"Mass, wet, root",[2]; [17],0.94 g/100 plantlings
same,"Mass, wet, root, + % to control",[2]; [17],15%
same,"Mass, wet, sprout",[2]; [17],1.89 g/100 plantlings
same,"Mass, wet, sprout, + % to control",[2]; [17],28%
same,"Length, root",[2]; [18],5.2 cm
same,"Length, root, + % to control",[2]; [18],11%
same,"Length, sprout",[2]; [18],2.7 cm
same,"Length, sprout, + % to control",[2]; [18],17%
same,"Mass, dry, root",[2]; [18],0.19 g/100 plantlings
same,"Mass, dry, root, + % to control",[2]; [18],12%
same,"Mass, dry, sprout",[2]; [18],0.24 g/100 plantlings
same,"Mass, dry, sprout, + % to control",[2]; [18],20%
same,"Mass, wet, root",[2]; [18],0.88 g/100 plantlings
same,"Mass, wet, root, + % to control",[2]; [18],7%
same,"Mass, wet, sprout",[2]; [18],1.82 g/100 plantlings
same,"Mass, wet, sprout, + % to control",[2]; [18],23%
same,dry mass of the roots increased by,[2]; [19],53%
same,dry mass of the sprouts increased by,[2]; [19],75%
same,length of the root increased by,[2]; [19],32%
same,length of the sprout increased by,[2]; [19],52%
same,wet mass of the roots increased by,[2]; [19],40%
same,wet mass of the sprouts increased by,[2]; [19],41%
